This note sets out measurements from US8568755B2 (priority 2007, dated 2013).

Each structure is given as a SMILES string. “And” between values parts separate entries of the source, which are not always exact repeats. Identical values can stand only once.

The test system of test [1] is Botrytis cinerea. As to the kind of experiment: Test on antifungal activity against gray mold pathogen, intersecting filter papers (Test Examples 7 and 8). In kind it is cell-based. As to conditions: single use, filter paper immersed in 30 ppm solution, 20° C. for 4 days.
The test system of another test is Erysiphe graminis. As to the kind of experiment: Test on preventive effect against wheat powdery mildew (Test Example 1). In kind it is in vivo.
Test [2] relates to Botrytis cinerea. As to the kind of experiment: Test on preventive effect against kidney bean gray mold (Test Example 4). The format is in vivo. How it is done: Kidney bean (cultivar: Taisyou Kintoki) was cultivated in a plastic pot having a diameter of 12.0 cm, and when it reached 2.5-leaf stage, a mixed chemical solution having the respective test compounds adjusted to prescribed concentrations, was applied by a spray gun in an amount of 10 ml per seedling. After the chemical solution dried, the leaf was cut out, and a filter paper disk (8 mm in diameter) was placed on the leaf. Then, 120 μl of a suspension of spores of Botrytis cinerea (1.0×10^6 spores/ml) was dropped thereon and inoculated. The system was maintained under a humidity condition at 20° C. for three days, whereupon the area of lesions was investigated, and the diseased area ratio to non-treated section was obtained in the same manner as in Test Example 3. Further, the theoretical value was calculated by a Colby's formula and shown in brackets ( ) in Tables 4-1 to 4-19. Since the diseased area ratio to non-treated section (experimental value) is lower than the theoretical value, the composition of the present invention can be said to have a synergistic effect.

A further test has as its system Septoria nodorum. As to the kind of experiment: Test on preventive effect against wheat glum bloth (Test Example 3). The format is in vivo. The procedure:
Wheat (cultivar: Norin-61-go) was cultivated in a plastic pot having a diameter of 7.5 cm, and when it reached 1.5-leaf stage, a mixed chemical solution having the respective sample compounds adjusted to prescribed concentrations, was applied by a spray gun in an amount of 10 ml per seedling. After the chemical solution dried, a suspension of conidia of Septoria nodorum was sprayed and inoculated and maintained at 20° C. for 7 days (for the first 3 days maintained under high humidity condition). Thereafter, the area of lesions was investigated, and the diseased area ratio to non-treated section was obtained by the following equation. Diseased area ratio to non-treated section=(a/b)×100
a: Average area of lesions in treated section
b: Average area of lesions in non-treated section
Further, the theoretical value was calculated by a Colby's formula and shown in brackets ( ) in Tables 3-1 to 3-14. Since the diseased area ratio to non-treated section (experimental value) is lower than the theoretical value, the composition of the present invention can be said to have a synergistic effect.

A further test concerns Phyicularia oryzae. The format is cell-based.
A further test concerns Sphaerotheca fuliginea. In kind it is in vivo.
In test [3] the test system is Botrytis cinerea. The experiment in a line: Test on antifungal activity against gray mold pathogen, mycelial growth on agar (Test Example 6). In kind it is cell-based. How it is done: Mycelial growth of Botrytis cinerea preliminarily obtained by cultivation was punched out by a cork borer having a diameter of 4 mm and transplanted on a potato sucrose agar medium containing mixed chemical agents adjusted to prescribed concentrations. The system was left to stand at 25° C. for 3 days for cultivation, whereupon the diameter of mycelial growth was measured. The incidence to non-treated section was obtained in the same manner as the above Test Example 5, and the results are shown in Table 6-1 to 6-3.
Further, the theoretical value was calculated by a Colby's formula and shown in brackets ( ) in Tables 6-1 to 6-3. Since the incidence to non-treated section is lower than the theoretical value, the composition of the present invention can be said to have a synergistic effect.

Take `Cc1ccsc1C(=O)NC(C)(C)C(=O)c1ccc(Cl)c(Cl)c1` [Compound No. 2, N-[(3′,4′-dichloro-1,1-dimethyl)phenacyl]-3-methyl-2-thiophenecarboxamide]: in the test with Botrytis cinerea [1], the “controlling effect (contact of filter paper with mycelial growth area of Botrytis cinerea)” value was “no adequate controlling effect”. Further, the “diseased area ratio to non-treated section” value was 97.5 and 90.0 with Erysiphe graminis (Compound (a) alone 125 ppm); 95.0 and 75.0 with Erysiphe graminis (Compound (a) alone 250 ppm); 70.0 with Erysiphe graminis (Compound (a) alone 500 ppm). Also, the “diseased area ratio to non-treated section (experimental value)” value with Botrytis cinerea [2] (single use at 4 ppm) is given as 65.0; in the test with Septoria nodorum (single use at 12.5 ppm), 50.0; in the test with Septoria nodorum (single use at 50 ppm), 35.0. The “incidence to non-treated section (mycelial growth diameter)” value (“incidence to non-treated section” for short) in the test on Phyicularia oryzae worked out at 82.6.

Turning to `CCCC(C)Oc1ccc(C(=O)C(C)(C)NC(=O)c2ncccc2C(F)(F)F)cc1` (stereo not shown) [Compound No. 11, N-[[4′-(2-pentyloxy)-1,1-dimethyl]phenacyl]-3-trifluoromethyl-2-pyridinecarboxamide], the “diseased area ratio to non-treated section (experimental value)” value with Sphaerotheca fuliginea (single use at 2 ppm) is 7.5 and 12.5 and 15.0 and 10.0; in the test on Botrytis cinerea [2] (single use at 4 ppm), 70.0; with Botrytis cinerea [2] (single use at 8 ppm), 55.7; in the test with Septoria nodorum (single use at 12.5 ppm), 50.0; in the test on Septoria nodorum (single use at 50 ppm), 25.0. In addition, the “incidence to non-treated section” value with Botrytis cinerea [3] (single use at 5 ppm) was 46.0; in the test on Botrytis cinerea [3] (single use at 50 ppm), 32.3; with Phyicularia oryzae it was 63.0 and 73.9.

In the case of `Cc1cc(OC(C)C)ccc1C(=O)C(C)(C)NC(=O)c1ncccc1C(F)(F)F` [Compound No. 4, N-[[2′-methyl-4′-(2-propyloxy)-1,1-dimethyl]phenacyl]-3-trifluoromethyl-2-pyridinecarboxamide], the “diseased area ratio to non-treated section” value with Erysiphe graminis (Compound (a) alone 125 ppm) is 5.0 and 3.6; with Erysiphe graminis (Compound (a) alone 250 ppm) it was 0.6; with Sphaerotheca fuliginea (Compound (a) alone 2 ppm) it was 7.5. Also, the “diseased area ratio to non-treated section (experimental value)” value with Botrytis cinerea [2] (single use at 4 ppm) is 70.0 and 79.7; in the test with Botrytis cinerea [2] (single use at 8 ppm), 64.6; in the test with Septoria nodorum (single use at 12.5 ppm) it was 35.0; in the test on Septoria nodorum (single use at 50 ppm), 20.0. Moreover, the “incidence to non-treated section” value is 45.2 in the test on Botrytis cinerea [3] (single use at 0.5 ppm); 69.6 and 71.7 with Phyicularia oryzae.
